From PubChem BioAssay (NCI)
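Exposure lasted 48 hours, with cells grown in 96-well plates and compounds tested at five concentrations. Here, GI50 denotes the concentration required for 50% inhibition of growth. TGI denotes the concentration required for complete inhibition of growth.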

Tests used:
Test in all cases: growth of human tumour cells (NCI), 48 h
786-0 renal = test system: 786-0 renal
A498 renal = test system: A498 renal
A549 NSCLC = test system: A549 NSCLC
ACHN renal = test system: ACHN renal
BT-549 breast = test system: BT-549 breast
CAKI-1 renal = test system: CAKI-1 renal
CCRF-CEM leukemia = test system: CCRF-CEM leukemia
COLO 205 colon = test system: COLO 205 colon
DU-145 prostate = test system: DU-145 prostate
EKVX NSCLC = test system: EKVX NSCLC
HCC-2998 colon = test system: HCC-2998 colon
HCT-116 colon = test system: HCT-116 colon
HCT-15 colon = test system: HCT-15 colon
HL-60(TB) leukemia = test system: HL-60(TB) leukemia
HOP-62 NSCLC = test system: HOP-62 NSCLC
HS 578T breast = test system: HS 578T breast
HT29 colon = test system: HT29 colon
IGROV1 ovarian = test system: IGROV1 ovarian
K-562 leukemia = test system: K-562 leukemia
KM12 colon = test system: KM12 colon
LOX IMVI melanoma = test system: LOX IMVI melanoma
M14 melanoma = test system: M14 melanoma
MALME-3M melanoma = test system: MALME-3M melanoma
MCF7 breast = test system: MCF7 breast
MDA-MB-231 breast = test system: MDA-MB-231 breast
MDA-MB-435 = test system: MDA-MB-435
MOLT-4 leukemia = test system: MOLT-4 leukemia
NCI-H226 lung = test system: NCI-H226 lung
NCI-H23 lung = test system: NCI-H23 lung
NCI-H460 lung = test system: NCI-H460 lung
NCI-H522 lung = test system: NCI-H522 lung
OVCAR-8 ovarian = test system: OVCAR-8 ovarian
PC-3 prostate = test system: PC-3 prostate
RPMI-8226 leukemia = test system: RPMI-8226 leukemia
SF-268 CNS = test system: SF-268 CNS
SF-295 CNS = test system: SF-295 CNS
SF-539 CNS = test system: SF-539 CNS
SK-MEL-28 melanoma = test system: SK-MEL-28 melanoma
SK-MEL-5 melanoma = test system: SK-MEL-5 melanoma
SK-OV-3 ovarian = test system: SK-OV-3 ovarian
SN12C renal = test system: SN12C renal
SNB-19 CNS = test system: SNB-19 CNS
SNB-75 CNS = test system: SNB-75 CNS
SR leukemia = test system: SR leukemia
SW-620 colon = test system: SW-620 colon
T-47D breast = test system: T-47D breast
TK-10 renal = test system: TK-10 renal
UACC-257 melanoma = test system: UACC-257 melanoma
UACC-62 melanoma = test system: UACC-62 melanoma
UO-31 renal = test system: UO-31 renal
HOP-92 NSCLC = test system: HOP-92 NSCLC
NCI/ADR-RES ovarian = test system: NCI/ADR-RES ovarian
OVCAR-3 ovarian = test system: OVCAR-3 ovarian
OVCAR-4 ovarian = test system: OVCAR-4 ovarian
OVCAR-5 ovarian = test system: OVCAR-5 ovarian
RXF 393 renal = test system: RXF 393 renal
SK-MEL-2 melanoma = test system: SK-MEL-2 melanoma
U251 CNS = test system: U251 CNS

In the case of Cc1nn(C(=O)Cc2ccccc2)c2c1C(c1ccccc1O)SC(N)=N2 (stereo not given), the TGI (786-0 renal) is reported as > 100000 nM, the TGI (A498 renal) is reported as > 100000 nM and the TGI (A549 NSCLC) is reported as > 100000 nM. The TGI (ACHN renal) was > 100000 nM, the TGI (BT-549 breast) was > 100000 nM and the TGI (CAKI-1 renal) was > 100000 nM. The TGI (CCRF-CEM leukemia) was > 100000 nM, the TGI (COLO 205 colon) was > 100000 nM and the TGI (DU-145 prostate) was > 100000 nM. The TGI (EKVX NSCLC) was > 100000 nM, the TGI (HCC-2998 colon) was > 100000 nM and the TGI (HCT-116 colon) was > 100000 nM. For the same compound, the TGI (HCT-15 colon) was > 100000 nM, the TGI (HL-60(TB) leukemia) was > 100000 nM and the TGI (HOP-62 NSCLC) was > 100000 nM. For the same compound, the TGI (HS 578T breast) was > 100000 nM, the TGI (HT29 colon) was > 100000 nM and the TGI (IGROV1 ovarian) was > 100000 nM. The TGI (K-562 leukemia) was > 100000 nM, the TGI (KM12 colon) was > 100000 nM and the TGI (LOX IMVI melanoma) was > 100000 nM. The TGI (M14 melanoma) was > 100000 nM, the TGI (MALME-3M melanoma) was > 100000 nM and the TGI (MCF7 breast) was > 100000 nM. The TGI (MDA-MB-231 breast) was > 100000 nM, the TGI (MDA-MB-435) was > 100000 nM and the TGI (MOLT-4 leukemia) was > 100000 nM. The TGI (NCI-H226 lung) was > 100000 nM, the TGI (NCI-H23 lung) was > 100000 nM and the TGI (NCI-H460 lung) was > 100000 nM. The TGI (NCI-H522 lung) was > 100000 nM, the TGI (OVCAR-8 ovarian) was > 100000 nM and the TGI (PC-3 prostate) was > 100000 nM. For the same compound, the TGI (RPMI-8226 leukemia) was > 100000 nM, the TGI (SF-268 CNS) was > 100000 nM and the TGI (SF-295 CNS) was > 100000 nM. The TGI (SF-539 CNS) was > 100000 nM, the TGI (SK-MEL-28 melanoma) was > 100000 nM and the TGI (SK-MEL-5 melanoma) was > 100000 nM. The TGI (SK-OV-3 ovarian) was > 100000 nM, the TGI (SN12C renal) was > 100000 nM and the TGI (SNB-19 CNS) was > 100000 nM. For the same compound, the TGI (SNB-75 CNS) was > 100000 nM, the TGI (SR leukemia) was > 100000 nM and the TGI (SW-620 colon) was > 100000 nM. The TGI (T-47D breast) was > 100000 nM, the TGI (TK-10 renal) was > 100000 nM and the TGI (UACC-257 melanoma) was > 100000 nM. The TGI (UACC-62 melanoma) was > 100000 nM and the TGI (UO-31 renal) was > 100000 nM.

CCCCN1CCN(c2ccc3nc(-c4ccc5nc(-c6ccc(C(F)(F)F)cc6)[nH]c5c4)[nH]c3c2)CC1 gave a GI50 (A498 renal) of 1780 nM, a TGI (A498 renal) of 3450 nM and a GI50 (A549 NSCLC) of 926 nM. For the same compound, the TGI (A549 NSCLC) was 2240 nM, the GI50 (ACHN renal) was 1380 nM and the TGI (ACHN renal) was 2680 nM. The GI50 (BT-549 breast) was 1610 nM, the TGI (BT-549 breast) was 3100 nM and the GI50 (CAKI-1 renal) was 1380 nM. For the same compound, the TGI (CAKI-1 renal) was 2690 nM, the GI50 (CCRF-CEM leukemia) was 289 nM and the TGI (CCRF-CEM leukemia) was 945 nM. For the same compound, the GI50 (COLO 205 colon) was 1450 nM, the TGI (COLO 205 colon) was 2950 nM and the GI50 (DU-145 prostate) was 915 nM. It also gave a TGI (DU-145 prostate) of 2360 nM, a GI50 (EKVX NSCLC) of 1570 nM and a TGI (EKVX NSCLC) of 3070 nM. It also gave a GI50 (HCC-2998 colon) of 1840 nM, a TGI (HCC-2998 colon) of 3550 nM and a GI50 (HCT-116 colon) of 348 nM. It also gave a TGI (HCT-116 colon) of 1270 nM, a GI50 (HCT-15 colon) of 303 nM and a TGI (HCT-15 colon) of 1100 nM. It also gave a GI50 (HL-60(TB) leukemia) of 923 nM, a TGI (HL-60(TB) leukemia) of 2630 nM and a GI50 (HOP-62 NSCLC) of 1540 nM. The TGI (HOP-62 NSCLC) was 2980 nM, the GI50 (HOP-92 NSCLC) was 1190 nM and the TGI (HOP-92 NSCLC) was 2640 nM. The GI50 (HS 578T breast) was 1820 nM, the TGI (HS 578T breast) was 3730 nM and the GI50 (HT29 colon) was 385 nM. It also gave a TGI (HT29 colon) of 1450 nM, a GI50 (KM12 colon) of 1120 nM and a TGI (KM12 colon) of 2680 nM. For the same compound, the GI50 (LOX IMVI melanoma) was 839 nM, the TGI (LOX IMVI melanoma) was 2270 nM and the GI50 (M14 melanoma) was 1340 nM. For the same compound, the TGI (M14 melanoma) was 2800 nM, the GI50 (MDA-MB-231 breast) was 1470 nM and the TGI (MDA-MB-231 breast) was 2940 nM. It also gave a GI50 (MDA-MB-435) of 1590 nM, a TGI (MDA-MB-435) of 3010 nM and a GI50 (MOLT-4 leukemia) of 1070 nM. For the same compound, the TGI (MOLT-4 leukemia) was 2590 nM, the GI50 (NCI-H23 lung) was 1680 nM and the TGI (NCI-H23 lung) was 3420 nM. It also gave a GI50 (NCI-H460 lung) of 640 nM, a TGI (NCI-H460 lung) of 1330 nM and a GI50 (NCI-H522 lung) of 1780 nM. For the same compound, the TGI (NCI-H522 lung) was 3490 nM, the GI50 (NCI/ADR-RES ovarian) was 3240 nM and the TGI (NCI/ADR-RES ovarian) was > 75900 nM. The GI50 (OVCAR-3 ovarian) was 614 nM, the TGI (OVCAR-3 ovarian) was 1120 nM and the GI50 (OVCAR-4 ovarian) was 859 nM. It also gave a TGI (OVCAR-4 ovarian) of 2390 nM, a GI50 (OVCAR-5 ovarian) of 1870 nM and a TGI (OVCAR-5 ovarian) of 3320 nM. For the same compound, the GI50 (OVCAR-8 ovarian) was 1240 nM, the TGI (OVCAR-8 ovarian) was 2640 nM and the GI50 (PC-3 prostate) was 962 nM. It also gave a TGI (PC-3 prostate) of 2310 nM, a GI50 (RPMI-8226 leukemia) of 201 nM and a TGI (RPMI-8226 leukemia) of 475 nM. For the same compound, the GI50 (RXF 393 renal) was 1130 nM, the TGI (RXF 393 renal) was 2490 nM and the GI50 (SF-268 CNS) was 1740 nM. The TGI (SF-268 CNS) was 3430 nM, the GI50 (SF-295 CNS) was 1480 nM and the TGI (SF-295 CNS) was 2950 nM. For the same compound, the GI50 (SF-539 CNS) was 1590 nM, the TGI (SF-539 CNS) was 3020 nM and the GI50 (SK-MEL-2 melanoma) was 1760 nM. The TGI (SK-MEL-2 melanoma) was 3310 nM, the GI50 (SK-MEL-28 melanoma) was 1690 nM and the TGI (SK-MEL-28 melanoma) was 3190 nM. It also gave a GI50 (SK-MEL-5 melanoma) of 1600 nM, a TGI (SK-MEL-5 melanoma) of 3090 nM and a GI50 (SK-OV-3 ovarian) of 1910 nM. It also gave a TGI (SK-OV-3 ovarian) of 3390 nM, a GI50 (SN12C renal) of 1610 nM and a TGI (SN12C renal) of 3210 nM. The GI50 (SNB-75 CNS) was 1110 nM, the TGI (SNB-75 CNS) was 2340 nM and the GI50 (SW-620 colon) was 297 nM. It also gave a TGI (SW-620 colon) of 841 nM, a GI50 (T-47D breast) of 1380 nM and a TGI (T-47D breast) of 3190 nM. The GI50 (TK-10 renal) was 2210 nM, the TGI (TK-10 renal) was 3680 nM and the GI50 (U251 CNS) was 1590 nM. It also gave a TGI (U251 CNS) of 2960 nM, a GI50 (UACC-257 melanoma) of 1780 nM and a TGI (UACC-257 melanoma) of 3410 nM. The GI50 (UACC-62 melanoma) was 1580 nM, the TGI (UACC-62 melanoma) was 3110 nM and the GI50 (UO-31 renal) was 1750 nM. It also gave a TGI (UO-31 renal) of 3240 nM.
